# Article doi:10.1101/2024.08.13.607785v1 (biorxiv, 2024)
# Like-named read-outs stand apart in the source and are kept apart here.
# Columns and labels:
# Test in all cases: biochemical
# Parameters in all cases: species or system human cell line lysate
# [1] = biological target: Calcium/calmodulin-dependent protein kinase type II subunit delta ; CAMK2D ; Q13557 (Homo sapiens, UniProt Q13557)
# [2] = biological target: Microtubule-associated serine/threonine-protein kinase 3 ; MAST3 ; O60307 (Homo sapiens, UniProt O60307)
# [3] = biological target: Activin receptor type-1 ; ACVR1 ; Q04771 (Homo sapiens, UniProt Q04771)
# [4] = biological target: Ribosomal protein S6 kinase alpha-5 ; RPS6KA5 ; O75582 (Homo sapiens, UniProt O75582)
# Sequence of Ribosomal protein S6 kinase alpha-5 ; RPS6KA5 ; O75582 (O75582 whole entry, canonical isoform): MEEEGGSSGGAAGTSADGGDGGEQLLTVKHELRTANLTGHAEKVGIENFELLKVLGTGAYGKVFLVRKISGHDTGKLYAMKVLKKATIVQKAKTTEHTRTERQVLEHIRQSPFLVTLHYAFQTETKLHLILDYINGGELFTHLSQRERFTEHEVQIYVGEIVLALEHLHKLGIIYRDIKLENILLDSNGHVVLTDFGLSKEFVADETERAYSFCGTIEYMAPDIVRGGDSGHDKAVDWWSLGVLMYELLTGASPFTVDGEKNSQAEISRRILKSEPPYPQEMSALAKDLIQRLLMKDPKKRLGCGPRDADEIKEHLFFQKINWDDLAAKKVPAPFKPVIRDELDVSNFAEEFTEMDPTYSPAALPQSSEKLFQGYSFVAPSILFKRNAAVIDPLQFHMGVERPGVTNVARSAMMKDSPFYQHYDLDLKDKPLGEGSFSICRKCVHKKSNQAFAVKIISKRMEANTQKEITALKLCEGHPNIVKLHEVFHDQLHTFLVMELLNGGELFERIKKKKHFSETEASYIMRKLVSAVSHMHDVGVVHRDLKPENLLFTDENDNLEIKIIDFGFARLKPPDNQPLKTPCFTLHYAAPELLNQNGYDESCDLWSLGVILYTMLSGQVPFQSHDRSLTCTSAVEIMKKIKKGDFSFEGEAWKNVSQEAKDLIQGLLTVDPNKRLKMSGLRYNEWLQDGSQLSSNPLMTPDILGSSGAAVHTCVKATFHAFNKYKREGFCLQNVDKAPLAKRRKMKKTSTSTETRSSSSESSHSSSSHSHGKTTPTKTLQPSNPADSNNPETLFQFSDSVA
# [5] = biological target: Isoform 5 of Aurora kinase B ; AURKB ; Q96GD4-5 (Homo sapiens, UniProt Q96GD4)
# Sequence of Isoform 5 of Aurora kinase B ; AURKB ; Q96GD4-5 (Q96GD4 whole entry, canonical isoform): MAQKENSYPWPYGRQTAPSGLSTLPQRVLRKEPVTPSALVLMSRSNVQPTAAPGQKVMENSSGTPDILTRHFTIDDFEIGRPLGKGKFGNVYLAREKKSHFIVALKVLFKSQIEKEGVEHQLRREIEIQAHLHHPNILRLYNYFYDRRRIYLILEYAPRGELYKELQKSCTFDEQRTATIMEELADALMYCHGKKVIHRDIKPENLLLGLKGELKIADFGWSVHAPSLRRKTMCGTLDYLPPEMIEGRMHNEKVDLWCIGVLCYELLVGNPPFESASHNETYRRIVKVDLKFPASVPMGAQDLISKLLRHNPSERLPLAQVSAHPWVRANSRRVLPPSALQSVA
# [6] = biological target: Glycosaminoglycan xylosylkinase ; FAM20B ; O75063 (Homo sapiens, UniProt O75063)
# [7] = biological target: Serine/threonine-protein kinase LATS1 ; LATS1 ; O95835 (Homo sapiens, UniProt O95835)
# Sequence of Serine/threonine-protein kinase LATS1 ; LATS1 ; O95835 (O95835 whole entry, one chain of several): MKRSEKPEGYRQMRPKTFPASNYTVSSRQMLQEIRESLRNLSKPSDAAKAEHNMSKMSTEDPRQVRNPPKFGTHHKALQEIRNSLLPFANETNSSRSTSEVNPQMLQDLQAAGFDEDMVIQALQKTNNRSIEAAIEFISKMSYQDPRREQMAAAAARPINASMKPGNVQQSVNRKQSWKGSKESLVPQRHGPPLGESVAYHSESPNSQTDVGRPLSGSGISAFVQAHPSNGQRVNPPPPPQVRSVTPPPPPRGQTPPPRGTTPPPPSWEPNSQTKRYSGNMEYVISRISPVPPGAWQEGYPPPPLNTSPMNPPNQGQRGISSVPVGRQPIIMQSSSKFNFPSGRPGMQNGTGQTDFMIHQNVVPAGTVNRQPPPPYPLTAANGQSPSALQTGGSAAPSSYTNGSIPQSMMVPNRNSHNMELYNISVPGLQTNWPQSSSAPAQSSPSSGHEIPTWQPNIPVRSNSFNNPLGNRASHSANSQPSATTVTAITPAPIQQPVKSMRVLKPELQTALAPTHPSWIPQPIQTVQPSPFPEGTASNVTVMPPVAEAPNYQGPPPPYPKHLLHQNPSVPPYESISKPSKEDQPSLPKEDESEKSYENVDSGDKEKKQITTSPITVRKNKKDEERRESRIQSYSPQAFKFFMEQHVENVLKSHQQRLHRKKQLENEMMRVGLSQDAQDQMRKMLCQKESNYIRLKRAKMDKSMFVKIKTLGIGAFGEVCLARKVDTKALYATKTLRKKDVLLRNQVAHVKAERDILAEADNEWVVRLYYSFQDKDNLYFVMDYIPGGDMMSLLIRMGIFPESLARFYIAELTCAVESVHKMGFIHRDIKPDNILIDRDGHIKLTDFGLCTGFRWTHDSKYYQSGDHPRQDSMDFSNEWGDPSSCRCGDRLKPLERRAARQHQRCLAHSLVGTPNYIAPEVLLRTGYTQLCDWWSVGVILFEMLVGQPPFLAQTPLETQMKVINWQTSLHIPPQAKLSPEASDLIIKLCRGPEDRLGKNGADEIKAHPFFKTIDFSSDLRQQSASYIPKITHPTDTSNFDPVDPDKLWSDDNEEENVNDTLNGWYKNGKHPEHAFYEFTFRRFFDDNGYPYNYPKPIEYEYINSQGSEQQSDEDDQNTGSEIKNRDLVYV
# [8] = biological target: Pyridoxal kinase ; PDXK ; O00764 (Homo sapiens, UniProt O00764)
# Sequence of Pyridoxal kinase ; PDXK ; O00764 (O00764 whole entry): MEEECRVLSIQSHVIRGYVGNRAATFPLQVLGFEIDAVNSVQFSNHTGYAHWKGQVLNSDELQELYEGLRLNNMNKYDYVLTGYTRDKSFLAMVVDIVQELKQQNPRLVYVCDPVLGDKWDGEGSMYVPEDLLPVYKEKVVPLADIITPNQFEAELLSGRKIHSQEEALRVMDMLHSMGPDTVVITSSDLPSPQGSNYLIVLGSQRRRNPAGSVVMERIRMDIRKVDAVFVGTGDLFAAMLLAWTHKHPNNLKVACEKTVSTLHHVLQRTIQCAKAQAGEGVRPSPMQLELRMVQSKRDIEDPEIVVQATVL
# [9] = biological target: Serine/threonine-protein kinase pim-1 ; PIM1 ; P11309 (Homo sapiens, UniProt P11309)
# [10] = biological target: Protein-tyrosine kinase 2-beta ; PTK2B ; Q14289 (Homo sapiens, UniProt Q14289)
# [11] = biological target: Tyrosine-protein kinase Fgr ; FGR ; P09769 (Homo sapiens, UniProt P09769)
# [12] = biological target: Dual specificity protein kinase CLK1 ; CLK1 ; P49759 (Homo sapiens, UniProt P49759)
# [13] = biological target: Serine/threonine-protein kinase LMTK2 ; LMTK2 ; Q8IWU2 (Homo sapiens, UniProt Q8IWU2)
# Sequence of Serine/threonine-protein kinase LMTK2 ; LMTK2 ; Q8IWU2 (Q8IWU2 whole entry, one chain of several): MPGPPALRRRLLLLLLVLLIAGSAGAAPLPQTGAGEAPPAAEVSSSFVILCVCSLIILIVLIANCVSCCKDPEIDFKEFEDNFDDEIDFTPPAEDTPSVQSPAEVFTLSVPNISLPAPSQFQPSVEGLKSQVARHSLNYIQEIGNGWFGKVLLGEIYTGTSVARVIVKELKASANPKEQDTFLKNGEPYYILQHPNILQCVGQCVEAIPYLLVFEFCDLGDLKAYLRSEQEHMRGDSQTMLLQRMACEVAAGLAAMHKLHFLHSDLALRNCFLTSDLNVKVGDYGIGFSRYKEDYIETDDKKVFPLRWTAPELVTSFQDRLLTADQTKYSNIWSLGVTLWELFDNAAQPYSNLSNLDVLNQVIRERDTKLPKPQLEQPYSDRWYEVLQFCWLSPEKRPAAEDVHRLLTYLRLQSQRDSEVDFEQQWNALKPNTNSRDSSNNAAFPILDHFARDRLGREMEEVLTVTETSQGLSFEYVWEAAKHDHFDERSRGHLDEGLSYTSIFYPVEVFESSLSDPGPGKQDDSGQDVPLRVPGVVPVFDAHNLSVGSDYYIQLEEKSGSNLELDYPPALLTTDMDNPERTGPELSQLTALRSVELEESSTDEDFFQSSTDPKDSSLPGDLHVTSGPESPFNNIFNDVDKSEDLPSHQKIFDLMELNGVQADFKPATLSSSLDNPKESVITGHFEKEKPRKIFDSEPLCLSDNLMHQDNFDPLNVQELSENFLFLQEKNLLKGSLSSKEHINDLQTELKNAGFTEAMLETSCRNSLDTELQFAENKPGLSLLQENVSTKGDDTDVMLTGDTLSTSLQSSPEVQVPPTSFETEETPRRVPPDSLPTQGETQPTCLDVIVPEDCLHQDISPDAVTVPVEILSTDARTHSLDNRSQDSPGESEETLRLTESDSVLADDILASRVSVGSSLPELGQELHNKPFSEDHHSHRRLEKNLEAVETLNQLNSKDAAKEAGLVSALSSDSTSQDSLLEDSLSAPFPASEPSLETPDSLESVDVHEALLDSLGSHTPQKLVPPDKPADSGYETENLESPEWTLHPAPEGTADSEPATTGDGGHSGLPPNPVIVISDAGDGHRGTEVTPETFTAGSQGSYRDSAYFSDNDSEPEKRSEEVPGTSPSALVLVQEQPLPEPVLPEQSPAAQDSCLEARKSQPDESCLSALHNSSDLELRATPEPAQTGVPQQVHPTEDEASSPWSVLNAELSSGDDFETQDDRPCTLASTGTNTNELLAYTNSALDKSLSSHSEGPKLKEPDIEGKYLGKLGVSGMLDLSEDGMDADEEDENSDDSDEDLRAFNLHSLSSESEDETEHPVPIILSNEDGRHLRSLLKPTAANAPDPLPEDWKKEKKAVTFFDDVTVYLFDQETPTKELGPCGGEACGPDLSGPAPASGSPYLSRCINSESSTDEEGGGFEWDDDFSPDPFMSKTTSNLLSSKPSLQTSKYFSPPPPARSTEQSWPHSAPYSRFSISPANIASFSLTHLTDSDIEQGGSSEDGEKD
# [14] = biological target: Ribosomal protein S6 kinase alpha-6 ; RPS6KA6 ; Q9UK32 (Homo sapiens, UniProt Q9UK32)
# [15] = biological target: Serine/threonine-protein kinase N2 ; PKN2 ; Q16513 (Homo sapiens, UniProt Q16513)
# [16] = biological target: Aurora kinase C ; AURKC ; Q9UQB9 (Homo sapiens, UniProt Q9UQB9)
# Sequence of Aurora kinase C ; AURKC ; Q9UQB9 (Q9UQB9 whole entry): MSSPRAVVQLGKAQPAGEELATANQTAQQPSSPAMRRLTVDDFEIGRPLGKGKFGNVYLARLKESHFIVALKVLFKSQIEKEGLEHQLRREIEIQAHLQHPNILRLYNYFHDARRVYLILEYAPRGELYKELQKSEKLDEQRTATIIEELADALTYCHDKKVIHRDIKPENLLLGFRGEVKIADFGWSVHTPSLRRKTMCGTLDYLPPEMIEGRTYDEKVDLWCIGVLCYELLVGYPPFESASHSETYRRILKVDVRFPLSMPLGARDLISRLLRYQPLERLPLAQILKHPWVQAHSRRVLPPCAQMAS
# [17] = biological target: Nucleoside diphosphate kinase, mitochondrial ; NME4 ; O00746 (Homo sapiens, UniProt O00746)
# Sequence of Nucleoside diphosphate kinase, mitochondrial ; NME4 ; O00746 (O00746 whole entry, canonical isoform): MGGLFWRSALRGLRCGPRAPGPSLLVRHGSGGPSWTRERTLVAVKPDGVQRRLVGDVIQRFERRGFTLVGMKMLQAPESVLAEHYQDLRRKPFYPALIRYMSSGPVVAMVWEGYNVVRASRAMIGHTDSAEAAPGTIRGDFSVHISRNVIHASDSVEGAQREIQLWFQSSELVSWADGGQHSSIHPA
# [18] = biological target: Isoform 6 of Tyrosine-protein kinase ABL2 ; ABL2 ; P42684-6 (Homo sapiens, UniProt P42684)
# [19] = biological target: Isoform Mxi2 of Mitogen-activated protein kinase 14 ; MAPK14 ; Q16539-3 (Homo sapiens, UniProt Q16539)
# Sequence of Isoform Mxi2 of Mitogen-activated protein kinase 14 ; MAPK14 ; Q16539-3 (Q16539 whole entry, canonical isoform): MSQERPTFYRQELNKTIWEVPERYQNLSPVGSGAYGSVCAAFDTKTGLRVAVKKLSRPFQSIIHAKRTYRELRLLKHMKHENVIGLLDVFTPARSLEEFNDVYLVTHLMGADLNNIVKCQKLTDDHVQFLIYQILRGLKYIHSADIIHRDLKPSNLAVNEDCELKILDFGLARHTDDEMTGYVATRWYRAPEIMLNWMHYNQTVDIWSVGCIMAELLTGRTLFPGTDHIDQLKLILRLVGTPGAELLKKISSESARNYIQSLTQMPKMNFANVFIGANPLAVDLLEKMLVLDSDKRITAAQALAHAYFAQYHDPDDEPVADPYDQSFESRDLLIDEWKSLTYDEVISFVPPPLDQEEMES
# [20] = biological target: EKC/KEOPS complex subunit TP53RK ; TP53RK ; Q96S44 (Homo sapiens, UniProt Q96S44)
# [21] = biological target: Vascular endothelial growth factor receptor 3 ; FLT4 ; P35916 (Homo sapiens, UniProt P35916)
# [22] = biological target: Receptor-type tyrosine-protein kinase FLT3 ; FLT3 ; P36888 (Homo sapiens, UniProt P36888)
# [23] = biological target: Isoform 2 of Proto-oncogene tyrosine-protein kinase Src ; SRC ; P12931-2 (Homo sapiens, UniProt P12931)
# [24] = read-out: BAY-1143572 (10 µM) / %Intensity relative to DMSO
# [25] = read-out: BAY-1251152 (10 µM) / %Intensity relative to DMSO
smiles,measurement,setting,value
COc1cc(F)ccc1-c1ncnc(Nc2cccc(C[S@](C)(=N)=O)c2)n1 [BAY-1143572],remaining activity at 10 µM,[1]; [24],94.4%
same,remaining activity at 10 µM,[2]; [24],79.4%
same,remaining activity at 10 µM,[3]; [24],87.7%
same,remaining activity at 10 µM,[4]; [24],109%
same,remaining activity at 10 µM,[5]; [24],101%
same,remaining activity at 10 µM,[6]; [24],141%
same,remaining activity at 10 µM,[7]; [24],118%
same,remaining activity at 10 µM,[8]; [24],139%
same,remaining activity at 10 µM,[9]; [24],124%
same,remaining activity at 10 µM,[10]; [24],217%
same,remaining activity at 10 µM,[11]; [24],96.5%
same,remaining activity at 10 µM,[12]; [24],116%
same,remaining activity at 10 µM,[13]; [24],128%
same,remaining activity at 10 µM,[14]; [24],133%
same,remaining activity at 10 µM,[15]; [24],222%
same,remaining activity at 10 µM,[16]; [24],105%
same,remaining activity at 10 µM,[17]; [24],79.4%
same,remaining activity at 10 µM,[18]; [24],59.1%
same,remaining activity at 10 µM,[19]; [24],128%
same,remaining activity at 10 µM,[20]; [24],122%
same,remaining activity at 10 µM,[21]; [24],115%
same,remaining activity at 10 µM,[22]; [24],70.5%
same,remaining activity at 10 µM,[23]; [24],102%
COc1cc(F)ccc1-c1cc(Nc2cc(CS(C)(=N)=O)ccn2)ncc1F (stereo not shown) [BAY-1251152],remaining activity at 10 µM,[1]; [25],90.9%
same,remaining activity at 10 µM,[2]; [25],82.9%
same,remaining activity at 10 µM,[3]; [25],99.3%
same,remaining activity at 10 µM,[4]; [25],110%
same,remaining activity at 10 µM,[5]; [25],65%
same,remaining activity at 10 µM,[6]; [25],123%
same,remaining activity at 10 µM,[7]; [25],114%
same,remaining activity at 10 µM,[8]; [25],119%
same,remaining activity at 10 µM,[9]; [25],110%
same,remaining activity at 10 µM,[10]; [25],176%
same,remaining activity at 10 µM,[11]; [25],97.1%
same,remaining activity at 10 µM,[12]; [25],104%
same,remaining activity at 10 µM,[13]; [25],126%
same,remaining activity at 10 µM,[14]; [25],118%
same,remaining activity at 10 µM,[15]; [25],222%
same,remaining activity at 10 µM,[16]; [25],41.7%
same,remaining activity at 10 µM,[17]; [25],94.8%
same,remaining activity at 10 µM,[18]; [25],69.2%
same,remaining activity at 10 µM,[19]; [25],119%
same,remaining activity at 10 µM,[20]; [25],118%
same,remaining activity at 10 µM,[21]; [25],104%
same,remaining activity at 10 µM,[22]; [25],84.2%
same,remaining activity at 10 µM,[23]; [25],112%
